This is an account of results in PubChem BioAssay AID330 (DTP/NCI, 2004).

This assay relates to P388 leukemia ip, CD2F1 mice, survival T/C. Briefly: NCI In Vivo Anticancer Drug Screen. Data for tumor model P388 Leukemia (intraperitoneal) in CD2F1 (CDF1) mice. The settings on record: endpoint: median survival time, higher = longer survival. An outline of the steps:
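Mice carrying the transplanted tumor received test compound or vehicle. Survival was recorded in each group, and the value is the treated-group measurement divided by that of the vehicle-treated control group.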

Where [1] appears, read: dose: 50.0 mg/kg/injection, schedule: Q01DX005 (ip), vehicle: Klucel (hydroxypropylcellulose) (HPC).
Setting [2] is: dose: 100.0 mg/kg/injection, schedule: Q01DX005 (ip), vehicle: Klucel (hydroxypropylcellulose) (HPC).
[3] abbreviates: dose: 200.0 mg/kg/injection, schedule: Q01DX005 (ip), vehicle: Klucel (hydroxypropylcellulose) (HPC).
[4] abbreviates: dose: 100.0 mg/kg/injection, schedule: Q04DX003 (ip), vehicle: saline with Tween-80.
The mark [5] stands for this setting: dose: 200.0 mg/kg/injection, schedule: Q04DX003 (ip), vehicle: saline with Tween-80.
The mark [6] stands for this setting: dose: 400.0 mg/kg/injection, schedule: Q04DX003 (ip), vehicle: saline with Tween-80.
Setting [7] is: dose: 50.0 mg/kg/injection, schedule: Q01DX009 (ip), vehicle: Klucel (hydroxypropylcellulose) (HPC).
Where [8] appears, read: dose: 100.0 mg/kg/injection, schedule: Q01DX009 (ip), vehicle: Klucel (hydroxypropylcellulose) (HPC).
Where [9] appears, read: dose: 200.0 mg/kg/injection, schedule: Q01DX009 (ip), vehicle: Klucel (hydroxypropylcellulose) (HPC).
[10] abbreviates: dose: 12.5 mg/kg/injection, schedule: Q01DX009 (ip), vehicle: saline with Tween-80.
[11] abbreviates: dose: 25.0 mg/kg/injection, schedule: Q01DX009 (ip), vehicle: saline with Tween-80.
[12] abbreviates: dose: 50.0 mg/kg/injection, schedule: Q04DX002 (ip), vehicle: saline with Tween-80.
The mark [13] stands for this setting: dose: 60.0 mg/kg/injection, schedule: Q01DX005 (ip), vehicle: saline with Tween-80.
[14] abbreviates: dose: 120.0 mg/kg/injection, schedule: Q01DX005 (ip), vehicle: saline with Tween-80.
Where [15] appears, read: dose: 50.0 mg/kg/injection, schedule: Q01DX005 (ip), vehicle: saline with Tween-80.
Where [16] appears, read: dose: 100.0 mg/kg/injection, schedule: Q01DX005 (ip), vehicle: saline with Tween-80.
Setting [17] is: dose: 200.0 mg/kg/injection, schedule: Q01DX005 (ip), vehicle: saline with Tween-80.
The mark [18] stands for this setting: dose: 240.0 mg/kg/injection, schedule: Q01DX005 (ip), vehicle: saline with Tween-80.

Several values for one entry are separate records, joined by “and”; a condition that tells them apart may be missing. Identical values can stand only once. Toxic doses and inconclusive results are not listed.

With `CC(C)=CCC1=C(C)C(=O)C(C)=C(C)C1=O`, the T/C is, setting by setting: (dose: 12.5 mg/kg/injection, schedule: Q01DX009 (ip), vehicle: distilled water + Tween-80 + alcohol) 100 % of control; (dose: 25.0 mg/kg/injection, schedule: Q01DX009 (ip), vehicle: distilled water + Tween-80 + alcohol) 98 % of control; (dose: 50.0 mg/kg/injection, schedule: Q01DX009 (ip), vehicle: distilled water + Tween-80 + alcohol) 100 % of control; (dose: 100.0 mg/kg/injection, schedule: Q01DX009 (ip), vehicle: distilled water + Tween-80 + alcohol) 98 % of control; (dose: 200.0 mg/kg/injection, schedule: Q01DX009 (ip), vehicle: distilled water + Tween-80 + alcohol) 86 % of control.

Take `Cc1ccc(C=C2c3ccccc3C(=O)c3ccccc32)cc1`: the T/C under setting [1] is 108 % of control, the T/C under setting [2] was 107 % of control and the T/C under setting [3] is 105 % of control.

For the compound `FC(F)(F)COP(OCC(F)(F)F)OCC(F)(F)F`, the T/C under setting [4] is 118 % of control, the T/C under setting [5] was 102 % of control and the T/C under setting [6] was 104 % of control.

Regarding `CSc1nsc(SC)c1-c1ccc(Cl)cc1`, the T/C under setting [7] is 99 % of control, the T/C under setting [8] is 100 % of control and the T/C under setting [9] is 92 % of control.

For `Cc1ccc(NC(=O)OCCN(C)C(=O)Nc2ccc(C)cc2C)c(C)c1`, the T/C was 98 % of control (dose: 30.0 mg/kg/injection, schedule: Q01DX005 (ip), vehicle: Klucel (hydroxypropylcellulose) (HPC)); 103 % of control and 94 % of control (dose: 60.0 mg/kg/injection, schedule: Q01DX005 (ip), vehicle: Klucel (hydroxypropylcellulose) (HPC)); 98 % of control (dose: 120.0 mg/kg/injection, schedule: Q01DX005 (ip), vehicle: Klucel (hydroxypropylcellulose) (HPC)); 86 % of control (dose: 240.0 mg/kg/injection, schedule: Q01DX005 (ip), vehicle: Klucel (hydroxypropylcellulose) (HPC)).

Consider `CCCCCCC1(/C=C/c2ccc(Cl)cc2Cl)OCCCO1`, for which the T/C by setting is: (dose: 50.0 mg/kg/injection, schedule: Q01DX009 (ip), vehicle: saline + alcohol) 94 % of control; (dose: 100.0 mg/kg/injection, schedule: Q01DX009 (ip), vehicle: saline + alcohol) 97 % of control; (dose: 200.0 mg/kg/injection, schedule: Q01DX009 (ip), vehicle: saline + alcohol) 97 % of control.

As to `CCCCCCCCCCCCCCCCCCOC(=O)Cc1ccc(N(CCCl)CCCl)cc1`, the T/C (dose: 45.0 mg/kg/injection, schedule: Q01DX009 (ip), vehicle: saline with Tween-80) was 168 % of control; the T/C (dose: 90.0 mg/kg/injection, schedule: Q01DX009 (ip), vehicle: saline with Tween-80) was 163 % of control; the T/C (dose: 180.0 mg/kg/injection, schedule: Q01DX009 (ip), vehicle: saline with Tween-80) is 150 % of control.

Consider `CC1(O)c2ccccc2[P+](C)(c2ccccc2)c2ccccc21` (stereo unspecified), for which the T/C is 111 % of control under setting [10] and 109 % of control under setting [11].

As for `CN=C(N)N/N=C(\C)c1ccc2c(c1)Cc1cc(Br)ccc1-2`, the T/C was 102 % of control (dose: 6.25 mg/kg/injection, schedule: Q04DX002 (ip), vehicle: saline with Tween-80); 105 % of control (dose: 12.5 mg/kg/injection, schedule: Q04DX002 (ip), vehicle: saline with Tween-80); 105 % of control and 124 % of control (dose: 25.0 mg/kg/injection, schedule: Q04DX002 (ip), vehicle: saline with Tween-80); 98 % of control and 101 % of control under setting [12].

In the case of `C/C(=N\NC(=S)N1CCN(c2ccccn2)CC1)c1ncccn1`, the T/C reads like this: (dose: 3.13 mg/kg/injection, schedule: Q01DX005 (ip), vehicle: saline with Tween-80) 115 % of control; (dose: 6.25 mg/kg/injection, schedule: Q01DX005 (ip), vehicle: saline with Tween-80) 122 % of control and 123 % of control; (dose: 12.5 mg/kg/injection, schedule: Q01DX005 (ip), vehicle: saline with Tween-80) 95 % of control.

In the case of `COc1cc(CSc2ccccc2)cc(OC)c1N`, the T/C reads like this: under setting [1], 95 % of control; under setting [2], 100 % of control; under setting [3], 99 % of control.

`Clc1ncccc1-n1cccc1/C=N\N=C/c1cccn1-c1cccnc1Cl`: the T/C runs as follows: under setting [13], 97 % of control; under setting [14], 89 % of control.

Regarding `Cc1c(Cl)cccc1NC(=O)NNC(=O)c1ccncc1`, the T/C under setting [7] was 90 % of control, the T/C under setting [8] is 88 % of control and the T/C under setting [9] was 88 % of control.

As for `O=C1C(=O)N(c2ccccc2)[C@]2(c3ccccc3)C1=C(c1ccccc1)N(c1ccccc1)C(=O)N2c1ccccc1`, the T/C by setting is: under setting [15], 97 % of control; under setting [16], 88 % of control; under setting [17], 88 % of control.

Regarding `CCCCOB(OCCCC)C(C)C(C#N)C#N` (stereo unspecified), the T/C reads like this: (dose: 50.0 mg/kg/injection, schedule: Q04DX003 (ip), vehicle: saline) 92 % of control; (dose: 100.0 mg/kg/injection, schedule: Q04DX003 (ip), vehicle: saline) 92 % of control; (dose: 200.0 mg/kg/injection, schedule: Q04DX003 (ip), vehicle: saline) 96 % of control.

`O=C(Nc1ccc(Cl)cc1)Nc1nnc2nc(C(C(=O)/C=C/c3ccccc3)c3nc4nnc(NC(=O)Nc5ccc(Cl)cc5)n4[nH]c3=O)c(=O)[nH]n12`: the T/C under setting [13] is 103 % of control, the T/C under setting [14] was 95 % of control and the T/C under setting [18] is 91 % of control.

In the case of `O=NN1CC23C=CCCC2(CCCC3)C1` (stereo unspecified), the T/C is, setting by setting: (dose: 100.0 mg/kg/injection, schedule: Q04DX003 (ip), vehicle: Klucel (hydroxypropylcellulose) (HPC)) 113 % of control; (dose: 200.0 mg/kg/injection, schedule: Q04DX003 (ip), vehicle: Klucel (hydroxypropylcellulose) (HPC)) 114 % of control; (dose: 400.0 mg/kg/injection, schedule: Q04DX003 (ip), vehicle: Klucel (hydroxypropylcellulose) (HPC)) 104 % of control.

Consider `O=[N+]([O-])c1cccc(SNc2cccc(Cl)c2)c1`, for which the T/C reads like this: under setting [11], 100 % of control; (dose: 25.0 mg/kg/injection, schedule: Q04DX003 (ip), vehicle: saline with Tween-80) 90 % of control; (dose: 50.0 mg/kg/injection, schedule: Q01DX009 (ip), vehicle: saline with Tween-80) 95 % of control; (dose: 50.0 mg/kg/injection, schedule: Q04DX003 (ip), vehicle: saline with Tween-80) 100 % of control; (dose: 100.0 mg/kg/injection, schedule: Q01DX009 (ip), vehicle: saline with Tween-80) 104 % of control; under setting [4], 86 % of control. Besides, the T/C under setting [5] was 100 % of control.

In the case of `CCCCN(CCCC)CC(O)c1cc(-c2ccc(C(F)(F)F)cc2)nc(-c2ccc(C(F)(F)F)cc2)c1` (stereo unspecified), the T/C runs as follows: (dose: 6.25 mg/kg/injection, schedule: Q01DX009 (ip), vehicle: saline with Tween-80) 109 % of control; under setting [10], 109 % of control; under setting [11], 100 % of control.

With `O=[N+]([O-])c1ccc(-c2cn(-c3ccc(Cl)cc3)cn2)cc1`, the T/C by setting is: under setting [13], 96 % of control; under setting [14], 88 % of control; under setting [18], 88 % of control.

As to `Cc1ccccc1NC(CCl)=NC(C)(C)C`, the T/C was 98 % of control under setting [4], 107 % of control under setting [5] and 104 % of control under setting [6].

For `CN(CC#CC#CCN(C)c1ccccc1)c1ccccc1`, the T/C is 102 % of control under setting [15], 102 % of control under setting [16] and 102 % of control under setting [17].

With `CCN(CC)c1c(C)c(-c2ccccc2)oc(=O)c1-c1ccccc1`, the T/C is 105 % of control under setting [7], 100 % of control under setting [8] and 100 % of control under setting [9].

Consider `O=C1CN(/N=C/c2ccc(-c3cccc(C(F)(F)F)c3)o2)C(=O)N1`, for which the T/C by setting is: under setting [12], 101 % of control; (dose: 100.0 mg/kg/injection, schedule: Q04DX002 (ip), vehicle: saline with Tween-80) 109 % of control.

On to `O=C(NC(Cc1ccc(O)cc1)C(=O)N=Nc1c(O)[nH]c2ccccc12)c1ccccc1` (stereo unspecified), for which the T/C runs as follows: (dose: 30.0 mg/kg/injection, schedule: Q01DX005 (ip), vehicle: saline with Tween-80) 90 % of control; under setting [13], 87 % of control and 90 % of control; under setting [14], 90 % of control; under setting [18], 101 % of control.
